Where only a bound is given, the exact number is not on record here.

Test [1] is described as follows: Antiviral activity determined against herpes simplex type 1 (F strain) by plaque reduction in Vero cells. To be noted: Chlorocebus sabaeus, read-out: ID50 (the source's name). In kind it is functional.
For test [2], the system named is Thymidine kinase (Human alphaherpesvirus 1). Kind of test: Phosphorylation of compound by purified HSV-1 (F strain) thymidine kinase. More on the design: concentration or dose not given beside the values.
Test [3] deals with Mus musculus. Kind of test: Mean survival time of HSV-2 encephalitis infectuous mice upon subcutaneous treatment with the compound at a dose of 20 mg/kg. In kind it is functional.
Test [4] has as its system Mus musculus. Put plainly: Effect of subcutaneous treatment with the compound on HSV-2 encephalitis infection in mice at a dose of 20 mg/kg; 10/16. In kind it is functional.
The subject of test [5] is Mus musculus. Put plainly: Effect of subcutaneous treatment with the compound on HSV-2 encephalitis infection in mice at a dose of 20 mg/kg; 2/10. In kind it is functional.
Test [6] concerns Mus musculus. Put plainly: Effect of subcutaneous treatment with the compound on HSV-2 encephalitis infection in mice at a dose of 20 mg/kg; 3/10. In kind it is functional.

On to `Nc1nc(O)c2ncn(CO[C@H](CO)COC3CCCC3)c2n1`, for which the IC50 in test [1] was 40 µM. The compound further gave an Activity in test [2] of 21%.

On to `Nc1nc2c(ncn2CC(CO)CO)c(=O)[nH]1` [TIVICICLOVIR], for which the IC50 in test [1] was above 100 µM.

For `COC[C@@H](CO)OCn1cnc2c(O)nc(N)nc21`, in test [1], the IC50 is 70 µM. The Activity in test [2] turned out to be 32%.

`C[C@@H](CO)OCn1cnc2c(O)nc(N)nc21`: the IC50 in test [1] is 2.3 µM. The Activity in test [2] is 28%.

On to `[N-]=[N+]=NC[C@@H](CO)OCn1cnc2c(O)nc(N)nc21`, for which, in test [1], the IC50 was above 100 µM. Moreover, in test [2], the Activity was determined as 25%.

As to `NC[C@@H](CO)OCn1cnc2c(O)nc(N)nc21`, in test [1], the IC50 is 32 µM. For the same compound, the Activity in test [2] is below 10%.

Consider `Nc1nc2c(ncn2COC(CO)CO)c(=O)[nH]1` [GANCICLOVIR], for which the IC50 in test [1] amounted to 0.2 µM. In the test on Mus musculus [3], this compound registered an MST of 13.5 days. Besides, the Survivors in the test with Mus musculus [4] came out at 10.

In the case of `Nc1nc(O)c2ncn(CO[C@H](CO)CF)c2n1`, in test [1], the IC50 was above 7 µM. This compound showed an MST with Mus musculus [3] of 8.5 days. Also, the Survivors with Mus musculus [5] amounted to 2. The compound also came in with an Activity in test [2] of 67%.

As to `Nc1nc2c(ncn2COCCO)c(=O)[nH]1` [ACYCLOVIR], in test [1], the IC50 was 0.5 µM.

On to `Nc1nc(O)c2ncn(CO[C@H](CO)CCl)c2n1`, for which the IC50 in test [1] is 60 µM. Further, the Activity in test [2] turned out to be 33%.

Regarding `Nc1nc(O)c2ncn(CO[C@H](CO)CCO)c2n1`, the IC50 in test [1] turned out to be 95 µM. The Activity in test [2] came out at 111%.

Regarding `CC(CO)(CO)COCn1cnc2c(O)nc(N)nc21`, the IC50 in test [1] was above 100 µM. In test [2], the Activity came out at 100%.

In the case of `Nc1nc(O)c2ncn(CCOC(CO)CO)c2n1`, in test [1], the IC50 is above 100 µM. This compound yielded an Activity in test [2] of 35%.

`Nc1nc(O)c2ncn(COCCOC(CO)CO)c2n1`: the IC50 in test [1] is above 7 µM. In the test with Mus musculus [3], this compound registered an MST of 10.3 days. The Survivors in the test with Mus musculus [6] is 3. The same compound gave an Activity in test [2] of 23%.

The values above are taken from ChEMBL document CHEMBL1123332, “Synthesis and anti-herpes-virus activity of acyclic 2'-deoxyguanosine analogues related to 9-[(1,3-dihydroxy-2-propoxy)methyl]guanine” (1986).
